Reference: patent US20240391885A1, “FORMS OF LINERIXIBAT” (GLAXOSMITHKLINE INTELLECTUAL PROPERTY (NO. 2) LIMITED, priority 2020, published 2024)
Values after ≈ are worked out from the molar mass of the structure shown.

What was measured:
Format in all cases: physicochemical
[1] = Solubility of drug substance samples in biorelevant media and sodium acetate buffer (Experiment 8b); conditions: for solubility at 1 h / solubility at 4 h / solubility at 24 h: thermodynamic from solid
From the text: Solubility data was obtained for drug substance samples of linerixibat Form I, linerixibat Form III, and additionally for a sample of Form I compressed to 100 MPa which therefore contained an amount of Form III, in order to replicate typical forces encountered during tablet manufacture.
The media used for the drug substance samples were biorelevant media likely to be experienced in the stomach and the intestine, namely Simulated Gastric Fluid (SGF) over an increasing pH range (1.6, 2.0 and 4.0) and Fasted State Simulated Intestinal Fluid (FaSSIF) at a pH of 6.5. Solubility data was also obtained in 50 mM sodium acetate buffer pH 4.5.

[2] = Solubility of linerixibat drug substance over pH 1.2-6.8 at 37±1° C. (Experiment 8a); conditions: for solubility at 1 h / solubility at 4 h / solubility at 24 h: 37 °C, thermodynamic from solid; for solubility at 1 h: 1-hr timepoint; for solubility at 4 h: 4-hr timepoint; for solubility at 24 h: 24-hr timepoint
Procedure: The solubility of linerixibat drug substance, in respect of Form I and Form III, was determined over the pH range of 1.2-6.8 at 37±1° C. Eight pH values within this range, including buffers at pH 1.2, 4.5 and 6.8 were evaluated. The therapeutic dose for linerixibat is 40 mg.
• SGF=simulated gastric fluid • BR=Britton Robinson

[3] = Conversion of Form I to Form III under mechanical stress / tablet compression (13C SSNMR, XRPD); conditions: one manufacturing batch of Form I after the final (agitated) drying step; qualitative assessment by 13C SSNMR and XRPD
From the text: Upon investigation, this occurrence was attributed to a combination of a relatively large batch size in a smaller filter drier (agitated drying stage) resulting in the wet material being subjected to greater shear forces during agitation, causing some conversion of Form I to Form III. Conversion of Form I to Form III was also observed during tablet compression process. […] During formulation development, samples of the linerixibat compression blend were compacted in a device to mimic the full-scale tableting process. X-ray powder diffractograms (XRPD) were obtained on these “compacts.” As the compression force was increased, the XRPD pattern changed to give loss of intensity of some peaks and formation of other peaks. This indicated the presence of another solid state form, which was subsequently confirmed as Form III. […] The intensities of Form I and Form III peaks in the ^13C SSNMR spectrum qualitatively indicate similar populations of the two polymorphic forms in the sample of mixture. The ^13C SSNMR data were acquired using the same apparatus and conditions as Example 1e.
^13C SSNMR data for linerixibat tablets, 90 mg of Form I compressed with different forces to achieve three different tensile strengths 1.6 MPa, 2.4 MPa and 3.2 MPa, were collected. The ^13C SSNMR data were acquired using the same apparatus and conditions as Example 1e. […]

[4] = Polymorph screen, relative stability of forms; conditions: relative to the other forms identified from the form screen
Procedure: Form I of linerixibat, a non-solvated crystalline form that melts with decomposition at onset temperature about 206° C. and peak temperature about 209° C., was identified as the predominant form of linerixibat from a polymorph screen study. Amorphous linerixibat and Form I were used as input material for polymorph screen experiments. […] Form I was obtained from a variety of screening samples, and the solvents used include water, methanol, ethanol, acetone, acetonitrile and ethyl acetate.

[5] = Miniaturised shake flask solubility in Britton-Robinson buffers and biorelevant media (Experiment 8c); conditions: 37° C., 1, 4 and 24 hours; FIG. 25
Procedure: Solubility of Form I and Form III was also measured in Britton-Robinson buffers (pH 2-8), determined and compared using a standardised miniaturised shake flask method via an automated platform using a development HPLC method for quantification post centrifugation and filtration. Samples were run at 37° C. and performed as 2 replicate preparations for each pH condition and 4 replicate preparations for each biorelevant media condition at 1, 4 and 24 hours.

[6] = Britton Robinson buffer, pH 3, aqueous buffer, nominal pH 3.0, BR buffer
[7] = Britton Robinson buffer, pH 3.5, aqueous buffer, nominal pH 3.5, BR buffer
[8] = Britton Robinson buffer, pH 3.8, aqueous buffer, nominal pH 3.8, BR buffer
[9] = Britton Robinson buffer, pH 4, aqueous buffer, nominal pH 4.0, BR buffer
[10] = Britton Robinson buffer, pH 5, aqueous buffer, nominal pH 5.0, BR buffer
[11] = acetate buffer, pH 4.5, aqueous buffer, nominal pH 4.5, Acetate buffer
[12] = phosphate buffer, pH 6.8, aqueous buffer, nominal pH 6.8, Phosphate buffer
[13] = simulated gastric fluid (SGF), pH 1.2, simulated gastric fluid, nominal pH 1.2, SGF

- solubility at 1 h ([1]; 50 mM sodium acetate buffer, pH 4.5, aqueous buffer, 50 mM Sodium Acetate Buffer pH 4.5, 1 Hour): 270 µg/mL (≈ 494 µM)
- solubility at 4 h ([1]; 50 mM sodium acetate buffer, pH 4.5, aqueous buffer, 50 mM Sodium Acetate Buffer pH 4.5, 4 Hours): 280 µg/mL (≈ 512 µM)
- solubility at 24 h ([1]; 50 mM sodium acetate buffer, pH 4.5, aqueous buffer, 50 mM Sodium Acetate Buffer pH 4.5, 24 Hours): 300 µg/mL (≈ 549 µM)
- solubility at 1 h ([1]; Fasted State Simulated Intestinal Fluid (FaSSIF), pH 6.5, fassif, FaSSIF pH 6.5, 1 Hour): 5080 µg/mL (≈ 9290 µM)
- solubility at 4 h ([1]; Fasted State Simulated Intestinal Fluid (FaSSIF), pH 6.5, fassif, FaSSIF pH 6.5, 4 Hours): 5110 µg/mL (≈ 9350 µM)
- solubility at 24 h ([1]; Fasted State Simulated Intestinal Fluid (FaSSIF), pH 6.5, fassif, FaSSIF pH 6.5, 24 Hours): 5310 µg/mL (≈ 9710 µM)
- solubility at 1 h ([1]; Simulated Gastric Fluid (SGF), pH 1.6, simulated gastric fluid, SGF pH 1.6, 1 Hour): 7200 µg/mL (≈ 13200 µM)
- solubility at 4 h ([1]; Simulated Gastric Fluid (SGF), pH 1.6, simulated gastric fluid, SGF pH 1.6, 4 Hours): 7390 µg/mL (≈ 13500 µM)
- solubility at 24 h ([1]; Simulated Gastric Fluid (SGF), pH 1.6, simulated gastric fluid, SGF pH 1.6, 24 Hours): 7910 µg/mL (≈ 14500 µM)
- solubility at 1 h ([1]; Simulated Gastric Fluid (SGF), pH 2, simulated gastric fluid, SGF pH 2.0, 1 Hour): 1490 µg/mL (≈ 2730 µM)
- solubility at 4 h ([1]; Simulated Gastric Fluid (SGF), pH 2, simulated gastric fluid, SGF pH 2.0, 4 Hours): 1530 µg/mL (≈ 2800 µM)
- solubility at 24 h ([1]; Simulated Gastric Fluid (SGF), pH 2, simulated gastric fluid, SGF pH 2.0, 24 Hours): 1620 µg/mL (≈ 2960 µM)
- solubility at 1 h ([1]; Simulated Gastric Fluid (SGF), pH 4, simulated gastric fluid, SGF pH 4.0, 1 Hour): 150 µg/mL (≈ 274 µM)
- solubility at 4 h ([1]; Simulated Gastric Fluid (SGF), pH 4, simulated gastric fluid, SGF pH 4.0, 4 Hours): 150 µg/mL (≈ 274 µM)
- solubility at 24 h ([1]; Simulated Gastric Fluid (SGF), pH 4, simulated gastric fluid, SGF pH 4.0, 24 Hours): 160 µg/mL (≈ 293 µM)
- solubility at 1 h [2, 6]: 178 µg/mL (≈ 326 µM)
- solubility at 4 h [2, 6]: 198 µg/mL (≈ 362 µM)
- solubility at 24 h [2, 6]: 232 µg/mL (≈ 424 µM)
- solubility at 1 h [2, 7]: 99 µg/mL (≈ 181 µM)
- solubility at 4 h [2, 7]: 110 µg/mL (≈ 201 µM)
- solubility at 24 h [2, 7]: 128 µg/mL (≈ 234 µM)
- solubility at 1 h [2, 8]: 104 µg/mL (≈ 190 µM)
- solubility at 4 h [2, 8]: 113 µg/mL (≈ 207 µM)
- solubility at 24 h [2, 8]: 131 µg/mL (≈ 240 µM)
- solubility at 1 h [2, 9]: 118 µg/mL (≈ 216 µM)
- solubility at 4 h [2, 9]: 125 µg/mL (≈ 229 µM)
- solubility at 24 h [2, 9]: 146 µg/mL (≈ 267 µM)
- solubility at 1 h [2, 10]: 393 µg/mL (≈ 719 µM)
- solubility at 4 h [2, 10]: 491 µg/mL (≈ 898 µM)
- solubility at 24 h [2, 10]: 650 µg/mL (≈ 1190 µM)
- solubility at 1 h [2, 11]: 190 µg/mL (≈ 348 µM)
- solubility at 4 h [2, 11]: 214 µg/mL (≈ 391 µM)
- solubility at 24 h [2, 11]: 293 µg/mL (≈ 536 µM)
- solubility classification ([2]; all pHs in the physiological range except close to the solubility minimum (between pH 3.2 and pH 4.2), high solubility = above 0.16 mg/mL (40 mg in 250 mL)): highly soluble
- difference in solubility between Form I and Form III ([2]; pH 1.2-6.8, 37±1° C.): no significant difference
- solubility at 1 h [2, 12]: > 1000 µg/mL
- solubility at 4 h [2, 12]: > 1000 µg/mL
- solubility at 24 h [2, 12]: > 1000 µg/mL
- solubility at 1 h [2, 13]: > 1000 µg/mL
- solubility at 4 h [2, 13]: > 1000 µg/mL
- solubility at 24 h [2, 13]: > 1000 µg/mL
- Form III content [3]: ≤ 10 % w/w
- relative stability of the form [4]: most stable form
- solubility comparison in biorelevant media [5]: very similar
Compound: CCCC[C@]1(CC)CS(=O)(=O)c2cc(CNC(CC(=O)O)CC(=O)O)c(OC)cc2[C@@H](c2ccccc2)N1 [Form I]
- solubility comparison of the forms ([1]; all investigated physiologically relevant pH values (1.6 to 6.5)): Forms I and III have very similar solubilities at all investigated physiologically
